Molecules are shown by their SMILES.

For the assay, the target named is T1, S1P1 (Homo sapiens, UniProt P21453).
T1 construct: expressed in transfected cells; host or cells: CHO cells (membranes)
T1 sequence (P21453 whole entry, species assumed): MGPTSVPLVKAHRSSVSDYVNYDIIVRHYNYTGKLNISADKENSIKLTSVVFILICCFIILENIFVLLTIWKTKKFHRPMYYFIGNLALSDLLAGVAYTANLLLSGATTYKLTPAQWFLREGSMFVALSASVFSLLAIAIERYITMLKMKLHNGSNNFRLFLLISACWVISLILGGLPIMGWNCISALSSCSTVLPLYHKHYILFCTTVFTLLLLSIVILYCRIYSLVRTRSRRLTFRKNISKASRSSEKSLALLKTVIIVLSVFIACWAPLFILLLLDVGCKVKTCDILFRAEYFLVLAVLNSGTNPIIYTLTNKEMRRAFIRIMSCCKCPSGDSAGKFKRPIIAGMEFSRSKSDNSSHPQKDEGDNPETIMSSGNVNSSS
The experiment in a line: 35S-GTPγS binding, S1P1 membranes. In kind it is biochemical. The settings on record: membranes from CHO cells expressing S1P1; 60 min 30° C. How it is done:
Receptor binding assay: Membranes were prepared from CHO cells expressing S1P1 or S1P3 for use in ligand and […] binding studies. Cells were suspended in 50 mM TRIS, pH 7.4, 2 mM EDTA, 250 mM Sucrose (buffer A) and 1× Complete protease inhibitor cocktail (Roche), and disrupted at 4° C. by N2 decompression using a cell disruption bomb (Parr Instrument). Following centrifugation at 1000 RPM for 10 min at 4° C., the supernatant was suspended in buffer A and centrifuged again at 19000 RPM for 60 min at 4° C. The pellet was then suspended in 10 mM HEPES, pH 7.4, 1 mM EDTA, 250 mM Sucrose (Buffer B), and 1× Complete EDTA-free protease inhibitor cocktail and homogenized using a potter. Membranes were flash frozen in liquid N2 and stored at −80° C. [33P]sphingosine 1-phosphate (3000 Ci/mmol; American Radiolabeled Chemicals, Inc.) was added to test compounds in DMSO. Membranes and WGA SPA beads (GE Healthcare) were added to give a final volume of 100 μl in 96-well plates with assay concentrations of 25 pM or 10 pM [33P]sphingosine 1-phosphate (respectively for S1P1 or S1P3), 50 mM HEPES, pH 7.5, 5 mM MgCl2, 100 mM NaCl, 0.4% fatty acid-free BSA, 1-5 μg/well of proteins and 100 μg/well of WGA SPA beads. Binding was performed for 60 min at RT on a shaker and bound radioactivity was measured on a PerkinElmer 1450 MicroBeta counter. Specific binding was calculated by subtracting remaining radioactivity in the presence of 1000-fold excess of unlabeled S1P. Binding data were analyzed using the GraphPad Prism program.
Measurements of ^35S-GTPγS Binding: Membranes (1 to 10 μg protein) prepared as described above, were incubated in 96-well Scintiplates (PerkinElmer) with test compounds diluted in DMSO, in 180 μl of 20 mM HEPES, pH 7.4, 10 mM MgCl2, 2 μg/well Saponin, 0.2% fatty acid free BSA (Assay buffer), 140 mM NaCl and 1.7 μM GDP. The assay was initiated with the addition of 20 μl of 1.5 nM [35S]-GTPγS (1100 Ci/mmol; GE Healthcare) in assay buffer. After 60 min incubation at 30° C. on a shaker, plates were centrifuged for 10 min at 2000 RPM. Supernatant was discarded and membrane bound radioactivity was measured on a PerkinElmer 1450 MicroBeta counter. Triplicate samples were averaged and expressed as % response relative to S1P activation in absence of compound (n=2).
In general terms: GTPγS resists hydrolysis and so accumulates on activated G proteins.
A word on the EC50: it is the concentration needed to bring the measured effect to its halfway point. Higher therefore signals a need for much substance. Take `Cc1ccccc1-c1ccc(-c2nc(-c3ccc(C(=O)O)c(F)c3)no2)cc1` [Example 5, 2-fluoro-4-[5-(2′-methylbiphenyl-4-yl)-1,2,4-oxadiazol-3-yl]benzoic acid]: the EC50 amounted to 5140 nM.

In turn, `Cc1cc(-c2nc(-c3ccc(C(=O)O)c(F)c3)no2)ccc1-c1ccccc1` [Example 6, 2-fluoro-4-[5-(2-methylbiphenyl-4-yl)-1,2,4-oxadiazol-3-yl]benzoic acid] yielded an EC50 of 2920 nM. In turn, `Cc1cc(-c2nc(-c3ccc(C(=O)O)c(F)c3)no2)ccc1-c1ccccc1C(F)(F)F` [Example 8, 2-fluoro-4-{5-[2-methyl-2′-(trifluoromethyl)biphenyl-4-yl]-1,2,4-oxadiazol-3-yl}benzoic acid] displayed an EC50 of 850 nM.

The molecule `O=C(O)c1ccc(-c2noc(-c3ccc(N4CCCCC4)c([N+](=O)[O-])c3)n2)cc1F` [Example 14, 2-fluoro-4-[5-(3-nitro-4-piperidin-1-ylphenyl)-1,2,4-oxadiazol-3-yl]benzoic acid] registered an EC50 of 5180 nM. This EC50 lies about 6.1-fold higher than the previous one. Molecule `Cc1cc(-c2nc(-c3ccc(C(=O)O)c(F)c3)no2)ccc1N1CCCCC1` [Example 16, 2-fluoro-4-[5-(3-methyl-4-piperidin-1-ylphenyl)-1,2,4-oxadiazol-3-yl]benzoic acid] came in with an EC50 of 2060 nM.

In the case of `O=C(O)c1ccc(-c2noc(-c3ccc(N4CCOCC4)c(C(F)(F)F)c3)n2)cc1F` [Example 17, 2-fluoro-4-{5-[4-morpholin-4-yl-3-(trifluoromethyl)phenyl]-1,2,4-oxadiazol-3-yl}benzoic acid], the EC50 was 3450 nM. This EC50 is about 1.7-fold higher than that of the molecule before. On to `Cc1cc(-c2nc(-c3ccc(C(=O)O)c(F)c3)no2)ccc1N1CCOCC1` [Example 18, 2-fluoro-4-[5-(3-methyl-4-morpholin-4-ylphenyl)-1,2,4-oxadiazol-3-yl]benzoic acid], for which the EC50 is 7000 nM.

Consider `COc1ccc(-c2ccc(-c3nc(-c4ccc(C(=O)O)c(F)c4)no3)cc2C)c(OC)c1` [Example 20, 4-[3-(2′,4′-dimethoxy-2-methylbiphenyl-4-yl)-1,2,4-oxadiazol-3-yl]-2-fluorobenzoic acid], for which the EC50 was found to be 10900 nM. The molecule `O=C(O)c1ccc(-c2noc(-c3ccc([N+](=O)[O-])c(N4CCCCC4)c3)n2)cc1F` [Example 21, 2-fluoro-4-[5-(4-nitro-3-piperidin-1-ylphenyl)-1,2,4-oxadiazol-3-yl]benzoic acid] displayed an EC50 of 9740 nM. As for `COc1ccc(OC)c(-c2ccc(-c3nc(-c4ccc(C(=O)O)c(F)c4)no3)cc2C)c1` [Example 24, 4-[3-(2′,5′-dimethoxy-2-methylbiphenyl-4-yl)-1,2,4-oxadiazol-3-yl]-2-fluorobenzoic acid], the EC50 was 10400 nM. This EC50 and that of the molecule before are within 1.5-fold of each other. The value for `Cc1cc(-c2nc(-c3ccc(C(=O)O)c(F)c3)no2)ccc1-c1c(C)noc1C` [Example 25, 4-{5-[4-(3,5-dimethylisoxazol-4-yl)-3-methylphenyl]-1,2,4-oxadiazol-3-yl}-2-fluorobenzoic acid] was 14200 nM; that for `Cc1cc(-c2nc(-c3ccc(C(=O)O)c(F)c3)no2)ccc1-c1ccccc1-c1ccccc1` [Example 31, 2-fluoro-4-[5-(2-methyl-1,1′:2′,1″-terphenyl-4-yl)-1,2,4-oxadiazol-3-yl]benzoic acid] was 2400 nM; that for `Cc1cc(-c2nc(-c3ccc(C(=O)O)c(F)c3)no2)ccc1-c1ccccc1O` [Example 32, 2-fluoro-4-[5-(2′-hydroxy-2-methylbiphenyl-4-yl)-1,2,4-oxadiazol-3-yl]benzoic acid] was 2920 nM. The value for `CC1CCCCN1c1ccc(-c2nc(-c3ccc(F)c(C(=O)O)c3)no2)cc1C(F)(F)F` (stereo not drawn) [Example 33, 2-fluoro-5-{5-[4-(2-methylpiperidin-1-yl)-3-(trifluoromethyl)phenyl]-1,2,4-oxadiazol-3-yl}benzoic acid] was 180 nM; that for `CC1CCCCN1c1ccc(-c2nc(-c3ccc(S(N)(=O)=O)cc3)no2)cc1C(F)(F)F` (stereo not drawn) [Example 38, 4-{5-[4-(2-methylpiperidin-1-yl)-3-(trifluoromethyl)phenyl]-1,2,4-oxadiazol-3-yl}benzenesulfonamide] was 1.5 nM; that for `COc1cc(-c2nc(-c3ccc(S(N)(=O)=O)cc3)no2)ccc1-c1cscc1C` [Example 39, 4-{5-[3-methoxy-4-(4-methyl-3-thienyl)phenyl]-1,2,4-oxadiazol-3-yl}benzenesulfonamide] was 2.9 nM. For `Cc1ccccc1-c1ccc(-c2nc(-c3ccc(S(N)(=O)=O)cc3)no2)cc1C` [Example 40, 4-[5-(2,2′-dimethylbiphenyl-4-yl)-1,2,4-oxadiazol-3-yl]benzenesulfonamide] the value was 10 nM; for `COCC1CCCN1c1ncc(-c2nc(-c3ccc(S(N)(=O)=O)cc3)no2)cc1C` (stereo not drawn) [Example 41, 4-(5-{6-[2-(methoxymethyl)pyrrolidin-1-yl]-5-methylpyridin-3-yl}-1,2,4-oxadiazol-3-yl)benzenesulfonamide], 1090 nM. In turn, `Cc1ccccc1-c1ccc(-c2nc(-c3ccc(C(=O)O)cc3)no2)cc1C` [Example 42, 4-[5-(2,2′-dimethylbiphenyl-4-yl)-1,2,4-oxadiazol-3-yl]benzoic acid] gave an EC50 of 1690 nM. Molecule `Cc1ccccc1-c1ccc(-c2nc(-c3ccc(O)c(C(=O)O)c3)no2)cc1C` [Example 43, 5-[5-(2,2′-dimethylbiphenyl-4-yl)-1,2,4-oxadiazol-3-yl]-2-hydroxybenzoic acid] registered an EC50 of 4360 nM. `Cc1cc(-c2nc(-c3ccc(O)c(C(=O)O)c3)no2)ccc1-c1cscc1C` [Example 44, 2-hydroxy-5-{5-[3-methyl-4-(4-methyl-3-thienyl)phenyl]-1,2,4-oxadiazol-3-yl}benzoic acid] registered an EC50 of 1450 nM.

`COc1cc(C(=O)O)ccc1-c1noc(-c2ccc(-c3ccccc3C)c(C)c2)n1` [Example 45, 4-[5-(2,2′-dimethylbiphenyl-4-yl)-1,2,4-oxadiazol-3-yl]-3-methoxybenzoic acid] yielded an EC50 of 4480 nM. Regarding `COc1cc(-c2noc(-c3ccc(-c4ccccc4C)c(C)c3)n2)ccc1C(=O)O` [Example 46, 4-[5-(2,2′-dimethylbiphenyl-4-yl)-1,2,4-oxadiazol-3-yl]-2-methoxybenzoic acid], the response was half-maximal at 2270 nM (EC50).

For the molecule `CC(C)COc1ncc(-c2nc(-c3ccc(OCC(=O)O)c(F)c3)no2)cc1Cl` [Example 49, {4-[5-(5-chloro-6-isobutoxypyridin-3-yl)-1,2,4-oxadiazol-3-yl]-2-fluorophenoxy}acetic acid], the midpoint of the response, the EC50, lay at 1280 nM. Consider `C#CCOc1ncc(-c2nc(-c3ccc(OCC(=O)O)c(F)c3)no2)cc1Cl` [Example 51, (4-{5-[5-chloro-6-(prop-2-yn-1-yloxy)pyridin-3-yl]-1,2,4-oxadiazol-3-yl}-2-fluorophenoxy)acetic acid], for which the midpoint of the response, the EC50, lay at 2020 nM. For `O=C(O)COc1ccc(-c2noc(-c3cnc(OCC4CC4)c(Cl)c3)n2)cc1F` [Example 52, (4-{5-[5-chloro-6-(cyclopropylmethoxy)pyridin-3-yl]-1,2,4-oxadiazol-3-yl}-2-fluorophenoxy)acetic acid] the value was 1540 nM; for `Cc1ccccc1-c1ccc(-c2nc(-c3ccc(C(=O)O)c(F)c3)no2)cc1CO` [Example 58, 2-fluoro-4-{5-[2-(hydroxymethyl)-2′-methylbiphenyl-4-yl]-1,2,4-oxadiazol-3-yl}benzoic acid], 2930 nM.

The record behind these values is patent US8202865B2, “Oxadiazole derivatives” (Merck Serono SA, priority 2007, dated 2012).
